{"source": "patent US20240408222A1", "about": "“COMPOUNDS, PHARMACEUTICAL COMPOSITIONS, AND METHODS FOR THE TREATMENT, PREVENTION, OR MANAGEMENT OF HYPERPRO[…]” (VINCERX PHARMA GMBH, priority 2021, published 2024)", "key": {"[1]": {"test_system": "786-O", "test": "Cytotoxicity in vitro (MTT) in presence/absence of elastase", "format": "cell-based, human", "settings": "72 h", "experimental": "(§1) Cultivation of cells was performed according to standard procedures with the media recommended by the provider. The cells, in a total volume of 100 μL, were seeded in a 96-well plate with a white bottom (#3610). After a 24 h incubation period at 37° C. and […], the medium was exchanged by adding 90 μL fresh medium. The treatment started by adding the test compound in 10 μL of culture medium to the cells in triplicates. Concentrations ranging from 10^−5 M to 10^−13 M were chosen. Two identically treated sets of samples were prepared. One set was treated with the test compound alone, whereas to the second set the compound and 10 nM elastase was added followed by a 72 h incubation period at 37° C. and […]. The proliferation was detected using the MTT assay (ATCC). At the end of the incubation period the MTT reagent was added to all samples for 4 h. Lysis of the cells followed by addition of the detergent was done overnight. The formed dye was detected at 570 nm. The proliferation of untreated but otherwise identically handled cells was define as the 100% value."}, "[2]": {"test_system": "HT29", "test": "Cytotoxicity in vitro (MTT) in presence/absence of elastase", "format": "cell-based, human", "settings": "72 h", "experimental": "as §1"}, "[3]": {"test_system": "NCI H292", "test": "Cytotoxicity in vitro (MTT) in presence/absence of elastase", "format": "cell-based, human", "settings": "72 h", "experimental": "as §1"}, "[4]": {"test_system": "SUM149", "test": "Cytotoxicity in vitro (MTT) in presence/absence of elastase", "format": "cell-based", "settings": "72 h", "experimental": "as §1"}, "[5]": {"test_system": "786-O", "test": "Cytotoxicity assay (Version 2, automated, AC50) with/without neutrophil elastase", "format": "cell-based, human", "settings": "Version 2, activity concentration at −50%", "how_it_was_run": "(§2)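 MTT absorbance at 570 nm after 72 h compound exposure (10^−5–10^−13 M, triplicate), run in parallel sets ± 10 nM elastase. Values normalized between medium-only wells (−100%) and DMSO controls (0%); AC50 = concentration giving −50%, via 4-parameter Hill fit.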"}, "[6]": {"test_system": "HT29", "test": "Cytotoxicity assay (Version 2, automated, AC50) with/without neutrophil elastase", "format": "cell-based, human", "settings": "Version 2, activity concentration at −50%", "how_it_was_run": "as §2"}, "[7]": {"test_system": "NCI H292", "test": "Cytotoxicity assay (Version 2, automated, AC50) with/without neutrophil elastase", "format": "cell-based, human", "settings": "NCI H292, with (+) neutrophil elastase, Version 2, activity concentration at −50%", "how_it_was_run": "as §2"}, "[8]": {"test_system": "SUM149", "test": "Cytotoxicity assay (Version 2, automated, AC50) with/without neutrophil elastase", "format": "cell-based", "settings": "Version 2, activity concentration at −50%", "how_it_was_run": "as §2"}, "[9]": {"settings": "37° C.", "experimental": "Method for measurement of stability in rat and human plasma: 1 mg of the test compound was dissolved in 0.5 ml acetonitrile/dimethylsulfoxide 1:1. For complete dissolution the HPLC vial was shaken and sonicated. While vortexing, 20 μl of this solution was added to 1 ml 37° C. warm plasma. After 10 min, 0.5 h, 1 h, 1.5 h, 2 h, and 4 h, the assay was stopped by adding 100 μl of the compound plasma solution to a vial containing 300 μl acetonitrile/buffer pH 3 (80:20) at RT. The mixture was centrifuged at 5000 rpm for 10 minutes. The supernatant was analyzed by HPLC to determine the amount of the test compound and up to two byproducts. To values resulted from a processed sample immediately taken after vortexing with plasma at RT. The peak areas (in percentage) were used for quantification. All data was given as percent area of the initial compound at to. The results of these assays are shown in FIG. 1 and FIG. 2 for rat and human plasma, respectively."}, "[10]": {"settings": "buffer pH 7.4, 37° C.", "experimental": "Method for measurement of stability in buffer: 0.15 mg of the test compound was dissolved in 0.1 ml dimethylsulfoxide and 0.4 ml acetonitrile. For complete dissolution, the HPLC vial with the sample solution was shaken and sonicated. Then 1.0 ml of the respective buffer solution was added, and the sample was vortexed. The sample solution was analysed by HPLC to determine the amount of the test compound and up to two byproducts at a particular time over a period of 24 h at 37° C. […] The peak areas (in percentage) were used for quantification."}, "[11]": {"settings": "without (−) neutrophil elastase"}, "[12]": {"settings": "HT29, without (−) neutrophil elastase"}, "[13]": {"settings": "SUM149, without (−) neutrophil elastase"}}, "note": "Where two headings read alike, the source gives them in different places.", "data": [{"compound": "CCCNC(=O)Nc1cccc(S(=O)(=O)Nc2cccc([C@@H](CC(=O)[O-])NC(=O)Nc3ccc(NC(=O)NCCOCCOCCOCCC(=O)N[C@@H](CC(=O)[O-])C(=O)N4CCC[C@H]4C(=O)N[C@H](C(=O)N=[S@@](C)(=O)Cc4cc5cc(c4)OCCCCOc4cc(F)ccc4-c4nc(ncc4F)N5)C(C)C)cc3)c2)c1.[Na+].[Na+]", "note": "[Compound 3]", "values": [{"measurement": "IC50", "setting": "[1]; with (+) 10 nM neutrophil elastase", "value": "≤ 1", "unit": "nM"}, {"measurement": "IC50", "setting": "[1]; [11]", "value": "> 100", "unit": "nM"}, {"measurement": "IC50", "setting": "[2]; HT29, with (+) 10 nM neutrophil elastase", "value": "≤ 1", "unit": "nM"}, {"measurement": "IC50", "setting": "[2]; [12]", "value": "> 100", "unit": "nM"}, {"measurement": "IC50", "setting": "[3]; NCI H292, with (+) 10 nM neutrophil elastase", "value": "≤ 1", "unit": "nM"}, {"measurement": "IC50", "setting": "[3]; NCI H292, without (−) neutrophil elastase", "value": "> 100", "unit": "nM"}, {"measurement": "IC50", "setting": "[4]; SUM149, with (+) 10 nM neutrophil elastase", "value": "≤ 1", "unit": "nM"}, {"measurement": "IC50", "setting": "[4]; [13]", "value": "> 100", "unit": "nM"}, {"measurement": "AC50", "setting": "[5]; with (+) neutrophil elastase", "value": "11 to 100", "unit": "nM"}, {"measurement": "AC50", "setting": "[5]; [11]", "value": "> 1000", "unit": "nM"}, {"measurement": "AC50", "setting": "[6]; HT29, with (+) neutrophil elastase", "value": "11 to 100", "unit": "nM"}, {"measurement": "AC50", "setting": "[6]; [12]", "value": "> 1000", "unit": "nM"}, {"measurement": "AC50", "setting": "[7]", "value": "11 to 100", "unit": "nM"}, {"measurement": "AC50", "setting": "[8]; SUM149, with (+) neutrophil elastase", "value": "11 to 100", "unit": "nM"}, {"measurement": "AC50", "setting": "[8]; [13]", "value": "100 to 1000", "unit": "nM"}, {"measurement": "time stable in plasma (no significant degradation)", "setting": "[9]; human plasma", "value": "at least 4 h"}, {"measurement": "time stable in plasma (no significant degradation)", "setting": "[9]; rat plasma", "value": "at least 4 h"}, {"measurement": "time stable in buffer (no significant degradation)", "setting": "[10]", "value": "at least 24 h"}]}]}
